Source: BigSolDB 2.1

CC(=O)c1c(C)c2cnc(Nc3ccc(N4CCNCC4)cn3)nc2n(C2CCCC2)c1=O
solubility (mole fraction)
Conditions | 293.15 K | 298.15 K | 303.15 K | 308.15 K | 313.15 K | 318.15 K | 323.15 K | 328.15 K | 333.15 K
in DMF | 6.17e-05 | 8.25e-05 | 0.000103 | 0.000131 | 0.000166 | 0.000202 | 0.000246 | 0.000293 | 0.000351
in DMSO | 6.57e-05 | 7.82e-05 | 9.62e-05 | 0.00012 | 0.000146 | 0.000172 | 0.000198 | 0.000246 | 0.000302
in THF | 7.14e-05 | 9.81e-05 | 0.000143 | 0.000189 | 0.00025 | 0.000329 | 0.000417 | 0.000536 | 0.000696
in acetone | 5.73e-05 | 7.32e-05 | 9.12e-05 | 0.000111 | 0.000138 | 0.000165 | 0.000199 | 0.000238 | 0.000278
in anisole | 1.32e-05 | 1.41e-05 | 1.51e-05 | 1.67e-05 | 1.79e-05 | 1.87e-05 | 1.98e-05 | 2.02e-05 | 2.17e-05
in chlorobenzene | 3.96e-05 | 5.28e-05 | 6.9e-05 | 8.91e-05 | 0.000116 | 0.000148 | 0.000189 | 0.000239 | 0.000302
in ethanol | 2.11e-05 | 2.66e-05 | 3.03e-05 | 3.61e-05 | 4.12e-05 | 4.81e-05 | 5.6e-05 | 6.41e-05 | 7.27e-05
in ethyl acetate | 1.44e-05 | 1.6e-05 | 2.06e-05 | 2.4e-05 | 3.08e-05 | 3.63e-05 | 4.42e-05 | 5.13e-05 | 5.98e-05
in m-xylene | 3.74e-05 | 4.12e-05 | 5.23e-05 | 6.44e-05 | 8.24e-05 | 9.8e-05 | 0.000119 | 0.000147 | 0.000171
in methanol | 1.1e-05 | 1.43e-05 | 1.97e-05 | 2.54e-05 | 3.43e-05 | 4.52e-05 | 5.71e-05 | 7.15e-05 | 9.01e-05
in o-xylene | 3.21e-05 | 3.62e-05 | 4.29e-05 | 4.88e-05 | 5.57e-05 | 6.38e-05 | 7.18e-05 | 8.16e-05 | 9.67e-05
in pyridine | 9.37e-05 | 0.000111 | 0.000127 | 0.000142 | 0.000159 | 0.000177 | 0.000196 | 0.000215 | 0.000236
in toluene | 4.72e-05 | 5.67e-05 | 6.78e-05 | 8.01e-05 | 9.44e-05 | 0.00011 | 0.000129 | 0.000152 | 0.000178
in water | 9.4e-06 | 1.18e-05 | 1.35e-05 | 1.7e-05 | 2.11e-05 | 2.52e-05 | 3.01e-05 | 3.63e-05 | 4.34e-05
